The values that follow come from US7265118B2, “Regulation of substrate activity” (Point Therapeutics, Inc., priority 1998, dated 2007).

The data set can be described thus: Conformational equilibrium of cyclic and open chain forms in aqueous solution. The format is physicochemical. The conditions noted are these: at equilibrium at pH 7.0. From the text:
The open, active, inhibitory chain species is favored at low pH while the cyclized structure is favored at neutral pH. The reaction is fully reversible: the open chain becomes predominant at low pH. The open chain to cyclic species reaction involves a trans to cis isomerization of the proline and the formation of a new N—B bond. […] Cyclization liberates one equivalent of H+ thereby explaining the requirement for base in the cyclization reaction and acid in the opening reaction. […] G. Gutheil and W. W. Bachovchin, Separation of L-Pro-DL-boroPro into Its Component Diastereomers and Kinetic Analysis of Their Inhibition of Dipeptidyl Peptidase IV. A New Method for the Analysis of Slow, Tight-Binding Inhibition, Biochemistry 32, 8723-8731 (1993)).

`O=C(C1CCCN1)N1CCCC1B(O)O` (centres unmarked) [Pro-boroPro]: the “fraction existing as the open chain, inhibitory species” value is listed as “less than 1%”.
As for `CC(C)C(N)C(=O)N1CCCC1B(O)O` (centres unmarked) [Val-boroPro], the “fraction existing as the open chain, inhibitory species” value is “less than 0.1%”.
